Assay results as given in publication PMC12445744, “Molecular docking to homology models of human and Trypanosoma brucei ERK8 that identified ortholog-specific inhibitors” (PLOS Neglected Tropical Diseases, 2025).
Values joined by “and” are separate entries in the source; they are usually repeats but may differ in a detail not shown here. Equal entries are not always repeated.

Experiments:
HsERK8 [1] = target: T1, HsERK8 (Homo sapiens, UniProt Q8TD08); conditions: cited from earlier work
T1 construct: plasmid pGEX2T expressing the full-length hERK8 coding region; made in house; host or cells: Escherichia coli Rosetta 2 (DE3)
T1 sequence (Q8TD08 1-544): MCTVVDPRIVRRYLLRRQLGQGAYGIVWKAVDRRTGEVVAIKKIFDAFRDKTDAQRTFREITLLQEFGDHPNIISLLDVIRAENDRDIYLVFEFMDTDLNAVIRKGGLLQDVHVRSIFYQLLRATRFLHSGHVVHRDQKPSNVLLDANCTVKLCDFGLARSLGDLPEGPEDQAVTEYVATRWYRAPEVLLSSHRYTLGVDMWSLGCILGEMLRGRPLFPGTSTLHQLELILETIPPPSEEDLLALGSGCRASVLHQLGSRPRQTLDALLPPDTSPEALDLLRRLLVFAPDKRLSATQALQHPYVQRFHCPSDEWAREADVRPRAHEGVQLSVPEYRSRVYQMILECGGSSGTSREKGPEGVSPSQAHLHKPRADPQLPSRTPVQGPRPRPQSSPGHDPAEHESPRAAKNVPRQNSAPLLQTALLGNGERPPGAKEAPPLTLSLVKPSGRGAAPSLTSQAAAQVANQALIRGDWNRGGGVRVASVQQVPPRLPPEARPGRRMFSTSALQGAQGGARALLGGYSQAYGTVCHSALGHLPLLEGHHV

TbERK8 [2] = target: T2, TbERK8 (Trypanosoma brucei brucei, UniProt Q38B88); conditions: cited from earlier work
T2 sequence (Q38B88 1-442): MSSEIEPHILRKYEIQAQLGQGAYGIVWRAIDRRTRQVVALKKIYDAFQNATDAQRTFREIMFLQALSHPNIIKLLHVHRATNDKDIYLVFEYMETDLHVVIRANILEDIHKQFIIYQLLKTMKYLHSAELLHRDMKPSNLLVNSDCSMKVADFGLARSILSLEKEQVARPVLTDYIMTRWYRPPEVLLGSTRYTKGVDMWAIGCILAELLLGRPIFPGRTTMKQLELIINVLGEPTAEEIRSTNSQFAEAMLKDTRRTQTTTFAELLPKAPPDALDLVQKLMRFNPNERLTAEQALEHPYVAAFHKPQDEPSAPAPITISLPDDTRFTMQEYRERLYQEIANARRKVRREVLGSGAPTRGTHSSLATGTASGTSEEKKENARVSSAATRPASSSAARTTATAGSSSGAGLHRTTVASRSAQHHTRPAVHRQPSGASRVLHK

TbERK8 [3] = target: T2, TbERK8; experiment: Luciferase-based kinase inhibition assay (ATP luminescence), GST-tagged TbERK8 with MBP substrate; assay type: biochemical; parameters: raw luminescence, TbERK8: unit of the concentration uncertain; conditions: for raw luminescence, TbERK8: sheet Kinase_glo_080924_IFPS (2), replicate wells
Method: (§1) Escherichia coli strain Rosetta 2 (DE3) (Cat# 71397, MilliporeSigma, Burlington, MA) was transformed with the plasmid pGEX2T expressing the full-length hERK8 coding region or pGSTAg expressing the full-length TbERK8 coding region. One liter of Terrific Broth media containing 100 μg/ml Ampicillin and 30 μg/ml chloramphenicol in 2 L baffled flasks was inoculated with 25 mL from an overnight culture of Rosetta 2 strains harboring either the pGEX2T-hERK8 or pGSTAg-TbERK8 plasmid. Two baffled flasks were inoculated with each overnight strain and incubated and shaken at 175 RPM in a New Brunswick Innova 44R Incubator Shaker (Fischer Scientific, Pittsburgh, PA) at 37 °C until the cultures reached an O.D.600 of 0.94. Once the cultures in the flask reached the target O.D.600, the flasks were cooled to 4 °C in an ice water bath. The cooled cultures were induced by adding isopropyl β-D-1-thiogalactopyranoside (IPTG) to a final concentration of 0.1 mM and shaken at 16 °C for 16 hours at 175 RPM in a New Brunswick Innova 44R Incubator Shaker (Fischer Scientific, Pittsburgh, PA). On the next day, the cultures were pelleted by centrifugation at 9000 xg in a JLA 10.500 rotor (Beckman Coulter; Brea, CA), and the media was decanted. The pellet was flash-frozen in liquid nitrogen and then thawed on ice. The thawed pellet was resuspended in lysis buffer (25 mM Tris, 75 mM NaCl, 0.5% TritonX-100 and 0.5% Nonidet P-40, 1 mM phenylmethanesulfonyl fluoride, 1 mM benzamidine⋅HCl) and lysed using a microfluidizer M-110P from Microfluidics (Westwood, MA). The crude lysates were clarified by centrifugation at 140,000 xg in a 45Ti rotor (Beckman Coulter, Brea, CA) for 30 min at 4°C. The clarified lysate was loaded by gravity to a 3 mL glutathione agarose resin column (Cat# G-250–10, GOLDBIO, St. Louis, MO) formed in a 1.5 × 20 cm glass chromatography column (Cat# 7371522, Bio-Rad, Hercules, CA). The column was washed with 30 mL of PBS (pH 7.4) containing 1 mM DTT. Elution buffer (50 mM Tris buffer pH 8.0 containing 10 mM reduced glutathione and 1 mM DTT was added to the washed column), and 1 mL fractions were collected by gravity and examined by SDS-PAGE stained by Coomassie dye. Peak fractions pooled from the elution were dialyzed (4x 1:500 dilutions) in kinase buffer (30 mM Tris, pH 7.4, 10 mM MgCl2, 1 mM DTT, 5% glycerol).
(§2) We performed kinase assays in buffer K (30 mM Tris pH 7.4, 10 mM MgCl2, 1 mM DTT, 5% glycerol, 50 μM ATP, and 0.1 mg/mL BSA) at 30°C for 30 min in 30 μL reactions. GST-tagged HsERK8 and TbERK8 were tested using myelin basic protein (MBP) (Cat# 13–110, Millipore, Darmstadt, Germany) as the substrate at increasing concentrations to determine the optimal activity for the assay. ATP consumption was determined by adding equal volumes of the kinase assay reagent (Promega, Cat# V5601, Madison, WI) following the manufacturer’s protocol. Luminescence was measured using the microplate reader (SpectraMax L, Molecular Devices, Sunnyvale, CA).
(§3) These compounds were screened for kinase inhibition utilizing a luciferase-based assay. Briefly, the kinases were tested using MBP as the substrate at a 14-fold molar excess in 384-well flat-bottom white plates (BRANDTECH Scientific, Cat# 781681, Essex, CT). These compounds were tested at concentrations ranging from […] to 150 nM. The kinases plus MBP substrate reactions were incubated with each inhibitor for 30 minutes at 30°C. Equal volumes of kinase assay mix Promega (Cat# V5601, Madison, WI) were added to the kinase/inhibitor reaction after 30 minutes, following the manufacturer’s protocol. ATP luminescence was measured using a microplate reader (SpectraMax L, Molecular Devices, Sunnyvale, CA). IC50 values were calculated from assays done in triplicate by fitting the data using Prism 8.1.1 (GraphPad).

HsERK8 [4] = target: T1, HsERK8; experiment: Luciferase-based kinase inhibition assay (ATP luminescence), GST-tagged HsERK8 with MBP substrate; assay type: biochemical; conditions: for raw luminescence, HsERK8: sheet Kinase_glo_080924_IFPS (2), replicate wells
Method: as §1, §2, §3

T. brucei = conditions: cited from earlier work
[5] = at any tested concentration (10 mM to 150 nM)

## Cn1cc(C2=C(c3cn(CCCSC(=N)N)c4ccccc34)C(=O)NC2=O)c2ccccc21 [Ro318220, 3-{3-[4-(1-Methyl-1H-indol-3-yl)-2,5-dioxo-2,5-dihydro-1H-pyrrol-3-yl]-1H-indol-1-yl}propyl carbamimidothioate]
HsERK8 [1]; HsERK8 over TbERK8
  greater potency inhibiting HsERK8 than TbERK8: 100–300 fold
HsERK8 [1]; read-out: IC50 for HsERK8 (reported)
  IC50: 0.005 to 0.01 µM

## Cc1ncc(-c2ccnc(Nc3ccc(S(C)(=O)=O)cc3)n2)n1C(C)C [AZD5438]
HsERK8 [1]
  inhibition of HsERK8: potent inhibitor
TbERK8 [2]
  inhibition of TbERK8: potent inhibitor

## C[C@]12CCC(=O)C=C1CC[C@H]1[C@@H]3CC[C@](O)(C(=O)CO)[C@@]3(C)C[C@H](O)[C@@]12F [Fludrocortisone]
TbERK8 [3]; 0.00015 (unit uncertain) compound
  raw luminescence, TbERK8: 1859.59 RLU and 2054.98 RLU and 1825.9 RLU
TbERK8 [3]; 0.00061 (unit uncertain) compound
  raw luminescence, TbERK8: 756.861 RLU and 669.272 RLU and 696.222 RLU
TbERK8 [3]; 0.00244 (unit uncertain) compound
  raw luminescence, TbERK8: 839.958 RLU and 756.861 RLU and 772.582 RLU
TbERK8 [3]; 0.00977 (unit uncertain) compound
  raw luminescence, TbERK8: 471.634 RLU and 512.06 RLU and 359.34 RLU
TbERK8 [3]; 0.03906 (unit uncertain) compound
  raw luminescence, TbERK8: 947.761 RLU and 727.664 RLU and 806.27 RLU
TbERK8 [3]; 0.15625 (unit uncertain) compound
  raw luminescence, TbERK8: 579.437 RLU and 552.486 RLU and 756.861 RLU
TbERK8 [3]; 0.62500 (unit uncertain) compound
  raw luminescence, TbERK8: 736.648 RLU and 693.976 RLU and 673.763 RLU
TbERK8 [3]; 2.50000 (unit uncertain) compound
  raw luminescence, TbERK8: 1122.94 RLU and 1073.53 RLU and 1107.22 RLU
TbERK8 [3]; 10.00000 (unit uncertain) compound, signal = ATP left
  raw luminescence, TbERK8: 4505.23 RLU and 4303.1 RLU and 4100.97 RLU
TbERK8 [3]; [5]
  inhibition of kinase activity of TbERK8: did not inhibit
HsERK8 [4]; 0.00015 mM compound
  raw luminescence, HsERK8: 3640.57 RLU and 3844.94 RLU and 3813.5 RLU
HsERK8 [4]; 0.00061 mM compound
  raw luminescence, HsERK8: 4118.94 RLU and 4395.18 RLU and 4579.35 RLU
HsERK8 [4]; 0.00244 mM compound
  raw luminescence, HsERK8: 4696.13 RLU and 4963.39 RLU and 5212.68 RLU
HsERK8 [4]; 0.00977 mM compound
  raw luminescence, HsERK8: 4772.49 RLU and 5547.32 RLU and 5378.88 RLU
HsERK8 [4]; 0.03906 mM compound
  raw luminescence, HsERK8: 6005.48 RLU and 7079.01 RLU and 7018.37 RLU
HsERK8 [4]; 0.15625 mM compound
  raw luminescence, HsERK8: 6266 RLU and 7171.09 RLU and 7216.01 RLU
HsERK8 [4]; 0.62500 mM compound
  raw luminescence, HsERK8: 7168.84 RLU and 8628.66 RLU and 8372.63 RLU
HsERK8 [4]; 2.50000 mM compound
  raw luminescence, HsERK8: 6252.52 RLU and 7644.97 RLU and 7582.08 RLU
HsERK8 [4]; 10.00000 mM compound, signal = ATP left
  raw luminescence, HsERK8: 11251.8 RLU and 11631.4 RLU and 11334.9 RLU
HsERK8 [4]; [5]
  inhibition of kinase activity of HsERK8: did not inhibit

## Cc1cc(Nc2nc(N[C@@H](C)c3ccc(F)cc3)c(C#N)cc2F)n[nH]1 [AZ960, (S)-5-Fluoro-2-(1-(4-fluorophenyl)ethylamino)-6-(5-methyl-1H-pyrazol-3-ylamino)nicotinonitrile]
T. brucei
  effect on T. brucei parasite: killed the parasite
HsERK8 [1]
  inhibition of HsERK8: inhibiting HsERK8 poorly
TbERK8 [2]; read-out: IC50 for TbERK8 (published)
  IC50: 0.12 µM
